Data published in the supplement of paper PMC11208160.

test: recombinant UMI read abundance after kanamycin selection (control-corrected) (log10(CPM+1)); higher = more efficient recombination; extreme values may be limits of the assay; sequences stand for … in AGTGCAGAGAAAATCGGCCAGTTTTCTCTGCCTGCAGTCCGCATGCCGTGGGACCCCTTGGGTTCTAACCTGTTGCCTAGATTTATGCAGCGGACTGCCTTTCTCCCAAAGTGATAAACCGG…AGGTTGGTTTCACT; site = the 11-nt donor
Summary of the method: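 For the IS621 bridge recombinase, a pooled Escherichia coli screen tested donor and donor-binding-loop pairs. Cells received the pair library together with a target plasmid encoding a fixed target and T7-inducible recombinase, then went onto IPTG (0.07 mM) plus kanamycin or unselected plates in duplicate. After PCR across the donor–target junction and sequencing, recombinant UMI counts were normalized to CPM, averaged, and scaled by control-derived factors. Each value is given as log10(CPM+1).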
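Further: IS621 bridge recombinase in Escherichia coli cells against a fixed T5 target plasmid.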

Sequence	recombinant UMI read abundance (log10)
GCTACTGCATGGACCGGTTTTCCCGGTAATCCGTATTTGAG (site GCTACTGCTCT)	1.49
GCTACTGCATGGACCGGTTTTCCCGGTAATCCGTATTTGCC (site ACTACTGCTGG)	1.44
GCTACTGCATGGACCGGTTTTCCCGGTAATCCGTATTTGCC (site CCTACTGCTGG)	0.983
GCTACTGCATGGACCGGTTTTCCCGGTAATCCGTATTTGCC (site GATACTGCTGG)	0
GCTACTGCATGGACCGGTTTTCCCGGTAATCCGTATTTGCC (site GCAACTGCTGG)	0
GCTACTGCATGGACCGGTTTTCCCGGTAATCCGTATTTGCC (site GCCACTGCTGG)	0.445
GCTACTGCATGGACCGGTTTTCCCGGTAATCCGTATTTGCC (site GCGACTGCTGG)	0
GCTACTGCATGGACCGGTTTTCCCGGTAATCCGTATTTGCC (site GCTAATGCTGG)	0
GCTACTGCATGGACCGGTTTTCCCGGTAATCCGTATTTGCC (site GCTACAGCTGG)	0
GCTACTGCATGGACCGGTTTTCCCGGTAATCCGTATTTGCC (site GCTACCGCTGG)	0
GCTACTGCATGGACCGGTTTTCCCGGTAATCCGTATTTGCC (site GCTACGGCTGG)	0
GCTACTGCATGGACCGGTTTTCCCGGTAATCCGTATTTGCC (site GCTACTACTGG)	1.21
GCTACTGCATGGACCGGTTTTCCCGGTAATCCGTATTTGCC (site GCTACTCCTGG)	0
GCTACTGCATGGACCGGTTTTCCCGGTAATCCGTATTTGCC (site GCTACTGCTAG)	0.00694
GCTACTGCATGGACCGGTTTTCCCGGTAATCCGTATTTGCC (site GCTACTGCTCG)	0
GCTACTGCATGGACCGGTTTTCCCGGTAATCCGTATTTGCC (site GCTACTGCTGA)	0
GCTACTGCATGGACCGGTTTTCCCGGTAATCCGTATTTGCC (site GCTACTGCTGC)	0
GCTACTGCATGGACCGGTTTTCCCGGTAATCCGTATTTGCC (site GCTACTGCTGG)	1.11
GCTACTGCATGGACCGGTTTTCCCGGTAATCCGTATTTGCC (site GCTACTGCTGT)	0
GCTACTGCATGGACCGGTTTTCCCGGTAATCCGTATTTGCC (site GCTACTGCTTG)	0.255
GCTACTGCATGGACCGGTTTTCCCGGTAATCCGTATTTGCC (site GCTACTTCTGG)	0
GCTACTGCATGGACCGGTTTTCCCGGTAATCCGTATTTGCC (site GCTAGTGCTGG)	0
GCTACTGCATGGACCGGTTTTCCCGGTAATCCGTATTTGCC (site GCTATTGCTGG)	0
GCTACTGCATGGACCGGTTTTCCCGGTAATCCGTATTTGCC (site GCTCCTGCTGG)	0
GCTACTGCATGGACCGGTTTTCCCGGTAATCCGTATTTGCC (site GCTGCTGCTGG)	0.274

Sequence	recombinant UMI read abundance (log10)
GCTACTGCATGGACCGGTTTTCCCGGTAATCCGTATTTGCC (site GCTTCTGCTGG)	0.74
GCTACTGCATGGACCGGTTTTCCCGGTAATCCGTATTTGCC (site GGTACTGCTGG)	1.03
GCTACTGCATGGACCGGTTTTCCCGGTAATCCGTATTTGCC (site GTTACTGCTGG)	0.815
GCTACTGCATGGACCGGTTTTCCCGGTAATCCGTATTTGCC (site TCTACTGCTGG)	0.424
GCTAGCCCATGGACCGGTTTTCCCGGTAATCCGTATTTGAT (site GCTAGCCCTAT)	0.197
GCTAGCCCATGGACCGGTTTTCCCGGTAATCCGTATTTGAT (site GCTCGCCCTAT)	0.0134
GCTAGCCCATGGACCGGTTTTCCCGGTAATCCGTATTTGAT (site GCTGGCCCTAT)	0.00566
GCTAGCCCATGGACCGGTTTTCCCGGTAATCCGTATTTGAT (site GCTTGCCCTAT)	0.00951
GCTCAGGCATGGACCGGTTTTCCCGGTAATCCGTATTTGTA (site GCTCAGGCTTA)	1.71
GCTCGAGCATGGACCGGTTTTCCCGGTAATCCGTATTTGCA (site GATCGAGCTTG)	0.25
GCTCGAGCATGGACCGGTTTTCCCGGTAATCCGTATTTGCA (site GCTCGAGCTTG)	2.67
GCTCGAGCATGGACCGGTTTTCCCGGTAATCCGTATTTGCA (site GGTCGAGCTTG)	0.679
GCTCGAGCATGGACCGGTTTTCCCGGTAATCCGTATTTGCA (site GTTCGAGCTTG)	0.655
GCTCGATCATGGACCGGTTTTCCCGGTAATCCGTATTTGCA (site GCTCGATCTTG)	2.07
GCTCGCGCATGGACCGGTTTTCCCGGTAATCCGTATTTGGT (site GCTCGCGCTAC)	0.984
GCTCGGGCATGGACCGGTTTTCCCGGTAATCCGTATTTGAG (site GCTCGGGCTCT)	0.866
GCTCTAGCATGGACCGGTTTTCCCGGTAATCCGTATTTGAC (site GCTCTAGCTGT)	1.67
GCTCTCGCATGGACCGGTTTTCCCGGTAATCCGTATTTGTT (site GCTCTCGCTAA)	0.534
GCTGAACCATGGACCGGTTTTCCCGGTAATCCGTATTTGTC (site GCTGAACCTGA)	0
GCTGCGTCATGGACCGGTTTTCCCGGTAATCCGTATTTGGT (site GCTGCGTCTAC)	0.732
GCTGCTCCATGGACCGGTTTTCCCGGTAATCCGTATTTGCT (site GCTGCTCCTAG)	0.276
GCTGCTGCATGGACCGGTTTTCCCGGTAATCCGTATTTGCC (site GCTACTGCTGG)	0.315
GCTGCTGCATGGACCGGTTTTCCCGGTAATCCGTATTTGCC (site GCTCCTGCTGG)	0
GCTGCTGCATGGACCGGTTTTCCCGGTAATCCGTATTTGCC (site GCTGCTGCTGG)	1.18
GCTGCTGCATGGACCGGTTTTCCCGGTAATCCGTATTTGCC (site GCTTCTGCTGG)	0

Sequence	recombinant UMI read abundance (log10)
GCTGCTTCATGGACCGGTTTTCCCGGTAATCCGTATTTGTA (site GCTGCTTCTTA)	0.981
GCTGGAGCATGGACCGGTTTTCCCGGTAATCCGTATTTGAG (site GCTGGAGCTCT)	1.41
GCTGGCGCATGGACCGGTTTTCCCGGTAATCCGTATTTGTA (site GCTGGCGCTTA)	0.982
GCTGTTACATGGACCGGTTTTCCCGGTAATCCGTATTTGCG (site GCTGTTACTCG)	1.48
GCTTAGTCATGGACCGGTTTTCCCGGTAATCCGTATTTGTT (site GCTTAGTCTAA)	2.37
GCTTGCACATGGACCGGTTTTCCCGGTAATCCGTATTTGAT (site GCTTGCACTAT)	1.16
GCTTGCACATGGACCGGTTTTCCCGGTAATCCGTATTTGAT (site GCTTGCCCTAT)	0.00585
GCTTGCACATGGACCGGTTTTCCCGGTAATCCGTATTTGAT (site GCTTGCGCTAT)	0.0165
GCTTGCACATGGACCGGTTTTCCCGGTAATCCGTATTTGAT (site GCTTGCTCTAT)	0.396
GCTTGCCCATGGACCGGTTTTCCCGGTAATCCGTATTTGCT (site GCTTGCCCTAA)	0.0261
GCTTGCCCATGGACCGGTTTTCCCGGTAATCCGTATTTGCT (site GCTTGCCCTAC)	0.00338
GCTTGCCCATGGACCGGTTTTCCCGGTAATCCGTATTTGCT (site GCTTGCCCTAG)	0.858
GCTTGCCCATGGACCGGTTTTCCCGGTAATCCGTATTTGCT (site GCTTGCCCTAT)	0.0783
GCTTGCGCATGGACCGGTTTTCCCGGTAATCCGTATTTGGT (site GCTTGCGCTAC)	0.514
GCTTGCTCATGGACCGGTTTTCCCGGTAATCCGTATTTGAT (site GCTTGCACTAT)	0.00386
GCTTGCTCATGGACCGGTTTTCCCGGTAATCCGTATTTGAT (site GCTTGCCCTAT)	0
GCTTGCTCATGGACCGGTTTTCCCGGTAATCCGTATTTGAT (site GCTTGCGCTAT)	0.00706
GCTTGCTCATGGACCGGTTTTCCCGGTAATCCGTATTTGAT (site GCTTGCTCTAT)	1.46
GCTTGTCCATGGACCGGTTTTCCCGGTAATCCGTATTTGAT (site GCTTGACCTAT)	0.00264
GCTTGTCCATGGACCGGTTTTCCCGGTAATCCGTATTTGAT (site GCTTGCCCTAT)	0.021
GCTTGTCCATGGACCGGTTTTCCCGGTAATCCGTATTTGAT (site GCTTGGCCTAT)	0
GCTTGTCCATGGACCGGTTTTCCCGGTAATCCGTATTTGAT (site GCTTGTCCTAT)	0
GCTTGTTCATGGACCGGTTTTCCCGGTAATCCGTATTTGAA (site GCTTGTTCTTT)	0.489
GCTTGTTCATGGACCGGTTTTCCCGGTAATCCGTATTTGCT (site GCTTGTTCTAG)	1.84
GGAAACCCATGGACCGGTTTTCCCGGTAATCCGTATTTGCC (site GGAAACCCTGG)	0
